In test [1] the test system is human vitronectin. In words: Binding assay of platelet to adhesive protein: vitronectin (receptor binding inhibition). The settings on record: Table 4; fixed activated human platelets, 37° C., 60 minutes; read-out: receptor binding inhibition (IC50), Bitronectin. The protocol:
(§1) The blood was taken out from the elbow vein of a normal volunteer, and mixed with 1/10 volume of 3.8% sodium citrate. The blood was centrifuged at 1,000 rpm (150 g) for 10 minutes, and the supernatant is collected as a platelet rich plasma (PRP). The precipitates are centrifuged at 11,000 rpm (6000 g) for two minutes, and the supernatant is collected as a platelet poor plasma (PPP). To PRP is added prostaglandin I2 (PGl2) at a final concentration of 50 ng/ml, and the mixture was centrifuged at 11000 rpm for two minutes to give human platelet. The platelet was activated by washing with 3.8 mM HEPES-buffer (pH 7.4, Tyrode-HEPES buffer) containing 0.14 M sodium chloride, 2.7 mM potassium chloride, 3.7 mM sodium dihydrogen phosphate, 0.98 mM magnesium chloride, 1 mg/ml glucose, 50 ng/ml PGl2 and 0.35% bovine serum albumin (BSA), adding thereto 5 μM epinephrine, and 30 μM ADP (adenosine diphosphate), followed by being allowed to stand at room temperature for five minutes. To the activated platelet was added 0.05% p-formaldehyde, and the mixture was allowed to stand at room temperature for 30 minutes to give the fixed platelet, which was suspended in Tyrode-HEPES buffer to give a platelet suspension of a concentration of 2×10^8 ml^-1.
(§2) Human fibrinogen from which fibronectin was previously removed by passing through gelatin-cepharose, human fibronectin or human vitronectin was diluted with 0.1 M aqueous sodium hydrogen carbonate solution to a concentration of 5 μg/ml, and the protein solution is put into a 96-well microplate at a volume of 200 μl/well. The microplate was allowed to stand at 4° C. overnight. The plate was washed with phosphate buffered saline (PBS), and subjected to blocking with 3% BSA at 37° C. for one hour. To the plate were added a platelet suspension (final concentration, 10^8 ml^-1) and a test compound of various concentrations (total volume, 200 μl/well), and the plate was incubated at 37° C. for 60 minutes. The plate was treated with 1000-fold diluted enzyme (HRP)-labelled anti-mouse IgG polyclonal antibody at 37° C. for 60 minutes, and thereto was added HRP chromogenic substrate (0.1 M phosphate buffer containing 0.4 mg/ml O-phenylenediamine,0.01% hydrogen peroxide, 0.1 M citric acid, pH 5), and reacted at room temperature for 15 minutes. The reaction was terminated by adding thereto 4.5 M sulfuric acid at a volume of 25 μl/well, and the absorbance at 490 nm was measured.

For test [2], the system named is platelet aggregation. The test can be described thus: Platelet aggregation inhibitory activity (ex vivo) after oral administration. The class given is in vivo. To be noted: Cavia porcellus, guinea pig, oral 0.1 mg/kg, ADP 10 μg/ml. The essentials:
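Guinea pigs dosed orally at 0.1 mg/kg; citrated carotid blood taken before and at 0.5, 1, 2, 4 and 6 h. PRP aggregation induced by ADP (10 μg/ml final) at 37° C, measured turbidimetrically; inhibition = (1 − MAR sample/MAR predose) × 100.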

Test [3] relates to platelet aggregation. The test can be described thus: Platelet aggregation inhibitory activity (ADP-induced, human platelet rich plasma). The class given is cell-based. The settings on record: Homo sapiens, Table 3, same manner as Example 17. The essentials: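 Citrated human platelet-rich plasma […] was stirred with test compound for 2 min at 37 °C. Aggregation was then induced with ADP at 3 μg/ml final and monitored by nephelometry. IC50 is the concentration giving 50% inhibition of aggregation.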

Test [4] has as its system human fibronectin. The test can be described thus: Binding assay of platelet to adhesive protein: fibronectin (receptor binding inhibition). To be noted: Table 4; fixed activated human platelets, 37° C., 60 minutes. As for the experimental part:
as §1, §2

Test [5] has as its target T1, human fibrinogen (Homo sapiens, UniProt P05106+P08514).
T1 construct: centrifuged at 11000 rpm for two minutes to give human platelet; from tissue
The test can be described thus: Binding assay of platelet to adhesive protein: fibrinogen (receptor binding inhibition). To be noted: Table 4; fixed activated human platelets, 37° C., 60 minutes. As for the experimental part:
as §1, §2

Setting [6] is: 0.5 hr, read-out: platelet aggregation inhibitory rate (%), 0.5 hr.
Setting [7] is: 1 hr, read-out: platelet aggregation inhibitory rate (%), 1 hr.
Setting [8] is: 2 hrs, read-out: platelet aggregation inhibitory rate (%), 2 hrs.
[9] abbreviates: 4 hrs, read-out: platelet aggregation inhibitory rate (%), 4 hrs.
Where [10] appears, read: 6 hrs, read-out: platelet aggregation inhibitory rate (%), 6 hrs.

Read-outs that look alike come from different tables or passages of the source.

T1 sequence (P08514 32-887 limits assumed): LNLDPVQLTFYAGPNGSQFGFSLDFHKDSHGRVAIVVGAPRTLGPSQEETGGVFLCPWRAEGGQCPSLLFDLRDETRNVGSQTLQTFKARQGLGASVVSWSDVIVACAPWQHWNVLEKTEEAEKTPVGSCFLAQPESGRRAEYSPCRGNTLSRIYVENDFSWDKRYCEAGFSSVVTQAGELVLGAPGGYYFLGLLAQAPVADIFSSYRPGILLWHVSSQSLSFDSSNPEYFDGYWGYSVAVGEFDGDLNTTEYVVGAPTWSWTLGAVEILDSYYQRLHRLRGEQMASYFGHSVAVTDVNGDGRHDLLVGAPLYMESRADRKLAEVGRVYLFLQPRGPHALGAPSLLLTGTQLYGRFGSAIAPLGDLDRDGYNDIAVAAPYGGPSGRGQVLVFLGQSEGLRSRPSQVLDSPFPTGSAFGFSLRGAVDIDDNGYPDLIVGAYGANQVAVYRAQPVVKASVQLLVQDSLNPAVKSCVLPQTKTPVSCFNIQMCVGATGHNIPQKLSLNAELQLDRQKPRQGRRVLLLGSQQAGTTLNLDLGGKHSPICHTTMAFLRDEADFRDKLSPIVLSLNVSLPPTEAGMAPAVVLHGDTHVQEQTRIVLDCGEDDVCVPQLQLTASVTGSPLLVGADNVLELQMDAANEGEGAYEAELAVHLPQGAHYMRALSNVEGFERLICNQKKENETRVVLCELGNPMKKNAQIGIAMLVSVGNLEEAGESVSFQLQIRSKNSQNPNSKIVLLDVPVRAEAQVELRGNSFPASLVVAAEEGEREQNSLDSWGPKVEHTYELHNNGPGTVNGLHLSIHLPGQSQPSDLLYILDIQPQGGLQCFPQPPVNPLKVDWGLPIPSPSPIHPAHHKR
T1 sequence (P08514 891-1039 limits assumed): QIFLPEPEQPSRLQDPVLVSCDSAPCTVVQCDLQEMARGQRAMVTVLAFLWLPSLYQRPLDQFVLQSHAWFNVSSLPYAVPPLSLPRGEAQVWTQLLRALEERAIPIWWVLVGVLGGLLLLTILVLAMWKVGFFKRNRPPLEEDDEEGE
T1 sequence (P05106 27-788): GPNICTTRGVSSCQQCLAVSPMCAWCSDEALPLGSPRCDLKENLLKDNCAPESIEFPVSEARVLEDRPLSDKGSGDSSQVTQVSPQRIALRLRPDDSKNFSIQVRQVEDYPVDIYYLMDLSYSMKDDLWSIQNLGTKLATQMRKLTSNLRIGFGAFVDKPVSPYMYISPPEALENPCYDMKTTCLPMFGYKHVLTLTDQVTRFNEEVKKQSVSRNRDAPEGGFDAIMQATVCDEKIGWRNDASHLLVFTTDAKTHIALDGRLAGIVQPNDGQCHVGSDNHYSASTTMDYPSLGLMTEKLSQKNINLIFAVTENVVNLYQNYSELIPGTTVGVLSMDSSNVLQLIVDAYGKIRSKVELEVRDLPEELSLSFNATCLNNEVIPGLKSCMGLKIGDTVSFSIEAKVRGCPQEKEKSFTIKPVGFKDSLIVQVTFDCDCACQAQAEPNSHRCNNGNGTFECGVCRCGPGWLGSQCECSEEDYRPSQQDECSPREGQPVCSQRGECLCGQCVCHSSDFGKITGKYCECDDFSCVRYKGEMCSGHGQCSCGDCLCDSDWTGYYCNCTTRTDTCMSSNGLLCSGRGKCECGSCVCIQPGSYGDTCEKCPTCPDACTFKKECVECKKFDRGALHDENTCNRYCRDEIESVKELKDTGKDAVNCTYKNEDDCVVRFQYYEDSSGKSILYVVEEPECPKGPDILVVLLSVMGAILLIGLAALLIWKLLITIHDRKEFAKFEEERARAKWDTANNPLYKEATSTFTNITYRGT

The IC50 is the concentration needed to halve the response being measured. In the case of `N=C(N)c1ccc(C(=O)NCCC(=O)NC[C@H](NS(=O)(=O)c2ccc(F)cc2)C(=O)O)cc1` [Example 78, (2S)-3-(3-(4-amidinobenzoylamino)propanoylamino)-2-(4-fluoro)benzenesulfonylaminopropanoic Acid], the IC50 in test [1] turned out to be 160 nM; in test [3], 16 nM; in test [4] it was 25 nM; in test [5] it was 9 nM. Further, the inhibition in vivo at 0.1 mg/kg in test [2] (setting [6]) came to 99%; in test [2] (setting [7]), 100%; in test [2] (setting [8]), 100%; in test [2] (setting [9]), 100%; in test [2] (setting [10]), 100%.
Turning to `CCc1ccc(S(=O)(=O)N[C@@H](CNC(=O)CCNC(=O)c2ccc(C(=N)N)cc2)C(=O)O)cc1` [Example 80, (2S)-3-(3-(4-amidinobenzoylamino)propanoylamino)-2-(4-ethyl)benzenesulfonylaminopropanoic Acid], the IC50 is 4900 nM in test [1], 17 nM in test [3], 390 nM in test [4] and 10 nM in test [5]. In addition, the inhibition in vivo at 0.1 mg/kg in test [2] (setting [6]) was 100%; in test [2] (setting [7]) it was 100%; in test [2] (setting [8]), 75%; in test [2] (setting [9]), 79%; in test [2] (setting [10]), 74%.
In the case of `N=C(N)c1ccc(OCCCC(=O)NC[C@H](NS(=O)(=O)c2ccccc2C(F)(F)F)C(=O)O)cc1` [Example 82, (2S)-3-(4-(4-amidinophenoxy)butanoylamino)-2-(2-trifluoromethyl)benzenesulfonylaminopropanoic Acid], the half-inhibitory concentration (IC50) in test [1] worked out at 270 nM; in test [3], 31 nM; in test [4] it was 19 nM; in test [5], 1.2 nM. For the same compound, the inhibition in vivo at 0.1 mg/kg in test [2] (setting [6]) came to 81%; in test [2] (setting [7]), 66%; in test [2] (setting [8]), 54%; in test [2] (setting [9]), 52%; in test [2] (setting [10]), 51%.
`CCc1ccc(S(=O)(=O)N[C@@H](CNC(=O)CCCOc2ccc(C(=N)N)cc2)C(=O)O)cc1` [Example 83, (2S)-3-(4-(4-amidinophenoxy)butanoylamino)-2-(4-ethyl)benzenesulfonylaminopropanoic Acid]: the IC50 in test [1] was determined as 7800 nM; in test [3], 30 nM; in test [4] it was 770 nM; in test [5], 22 nM. For the same compound, the inhibition in vivo at 0.1 mg/kg in test [2] (setting [6]) came out at 50%; in test [2] (setting [7]) it was 47%; in test [2] (setting [8]), 48%; in test [2] (setting [9]), 32%; in test [2] (setting [10]), 41%.
Consider `N=C(N)c1ccc(OCCCCC(=O)NC[C@H](NS(=O)(=O)c2ccccc2[N+](=O)[O-])C(=O)O)cc1` [Example 85, (2S)-3-(5-(4-amidinophenoxy)pentanoylamino)-2-(2-nitro)benzenesulfonylaminopropanoic Acid], for which the IC50 is 270 nM in test [1], 26 nM in test [3], 20 nM in test [4] and 4.8 nM in test [5]. Moreover, the inhibition in vivo at 0.1 mg/kg was determined as 36% in test [2] (setting [6]); 41% in test [2] (setting [7]); 44% in test [2] (setting [8]); 31% in test [2] (setting [9]); 17% in test [2] (setting [10]).
For the compound `Cc1cc(C)c(S(=O)(=O)N[C@@H](CNC(=O)CCCCOc2ccc(C(=N)N)cc2)C(=O)O)c(C)c1` [Example 86, (2S)-3-(5-(4-amidinophenoxy)pentanoylamino)-2-(2,4,6-trimethyl)benzenesulfonylaminopropanoic Acid], the IC50 in test [1] was 500 nM; in test [3], 56 nM; in test [4], 120 nM; in test [5], 1.1 nM. For the same compound, the inhibition in vivo at 0.1 mg/kg in test [2] (setting [6]) came to 46%; in test [2] (setting [7]), 0%; in test [2] (setting [8]) it was 0%; in test [2] (setting [9]) it was 0%; in test [2] (setting [10]), 0%.
`Cc1cc(C)c(S(=O)(=O)N[C@@H](CNC(=O)CCCCc2ccc(C(=N)N)cc2)C(=O)O)c(C)c1` [Example 87, (2S)-3-(5-(4-amidinophenyl)pentanoylamino)-2-(2,4,6-trimethyl)benzenesulfonylaminopropanoic Acid]: the IC50 in test [1] stood at 2700 nM; in test [3] it was 25 nM; in test [4] it was 210 nM; in test [5] it was 12 nM. The inhibition in vivo at 0.1 mg/kg amounted to 100% in test [2] (setting [6]); 100% in test [2] (setting [7]); 100% in test [2] (setting [8]); 100% in test [2] (setting [9]); 80% in test [2] (setting [10]).
For `N=C(N)c1ccc(CCCCCC(=O)NC[C@H](NS(=O)(=O)c2ccccc2)C(=O)O)cc1` [Example 91, (2S)-3-(6-(4-amidinophenyl)hexanoylamino)-2-benzenesulfonylaminopropanoic Acid], the IC50 in test [1] stood at 1300 nM; in test [3] it was 23 nM; in test [4], 50 nM; in test [5] it was 4.7 nM. Further, the inhibition in vivo at 0.1 mg/kg in test [2] (setting [6]) was found to be 51%; in test [2] (setting [7]), 41%; in test [2] (setting [8]) it was 31%; in test [2] (setting [9]), 14%; in test [2] (setting [10]), 39%.
On to `Cc1cc(C)c(S(=O)(=O)N[C@@H](CNC(=O)CCCCCc2ccc(C(=N)N)cc2)C(=O)O)c(C)c1` [Example 92, (2S)-3-(6-(4-amidinophenyl)hexanoylamino)-2-(2,4,6-trimethyl)benzenesulfonylaminopropanoic Acid], for which the IC50 amounted to 500 nM in test [1], 37 nM in test [3], 24 nM in test [4] and 3.9 nM in test [5]. For the same compound, the inhibition in vivo at 0.1 mg/kg in test [2] (setting [6]) was found to be 68%; in test [2] (setting [7]), 34%; in test [2] (setting [8]), 24%; in test [2] (setting [9]), 47%; in test [2] (setting [10]) it was 0%.
`COc1ccc(S(=O)(=O)N[C@@H](CNC(=O)CC2CCN(c3ccc(C(=N)N)cc3)CC2)C(=O)O)cc1` [Example 93, (2S)-3-(2-(1-(4-amidinophenyl)-4-piperidyl)ethanoylamino)-2-(4-methoxy)benzenesulfonylaminopropanoic Acid]: the half-inhibitory concentration (IC50) in test [1] is 3500 nM; in test [3] it was 93 nM; in test [4], 95 nM; in test [5] it was 15 nM. The inhibition in vivo at 0.1 mg/kg in test [2] (setting [6]) worked out at 4%; in test [2] (setting [7]), 27%; in test [2] (setting [8]), 69%; in test [2] (setting [9]) it was 44%; in test [2] (setting [10]), 12%.

(Values after patent publication US6048854A, “2,3-diaminopropionic acid derivative” (Sumitomo Pharmaceuticals Company, Limited, priority 1993, dated 2000).)
